Data taken from patent US4935520A, “Compound, oleyl-2-pyridinioethyl phosphate having antifungal and antiprotozoal properties” (Takeda Chemical Industries, Ltd., priority 1982, dated 1990).
Where two headings read alike, the source gives them in different places.

How the values were obtained:
[1] = test system: Tetrahymena pyriformis W strain; assay: Antiprotozoal activity, MIC; format: cell-based; conditions: broth dilution method, pH 7.0, 28° C., 44 to 48 hours; for MIC: Tetrahymena pyriformis, read-out: MIC against Tetrahymena pyriformis W strain
Experimental: The antiprotozoal activity values as shown in Table 4 were assayed using Tetrahymena pyriformis W strain as the test organism and an assay medium composed of 20 g of tryptose peptone (manufactured by Difco), 1 g of yeast extract, 2 g of glucose, 1000 ml of distilled water and 10 ml of 1M phosphate buffer (pH 7.0). The incubation was continued at 28° C. for 44 to 48 hours and the minimum inhibitory concentration (MIC) of the compounds of this invention was determined by the broth dilution method.

sarcoma 180 = assay: Effects against sarcoma 180 (survival rate, ICR mice); format: in vivo; conditions: 1 mg per mouse i.p., four days before 1×10^5 cells of sarcoma 180 i.p.; vs physiological saline control
MM46 carcinoma = assay: Effects against MM46 (surviving mice, C3H/He mice); format: in vivo; conditions: 24th day after transplantation of 1×10^4 MM46 cells i.p.; 250 μg i.p., eight times in total
Experimental: To each of C3H/He mice group was transplanted intraperitoneally 1×10^4 cells of MM46 carcinoma. Four times from five days to two days before the transplantation and four times from two days to five days after the transplantation, eight times in total, 250 μg of the test compound dissolved in 0.2 ml of physiological saline was administered intraperitoneally. The number of mice surviving on the 24th day after transplantation of the carcinoma cells was compared with that of the control group administered with saline.

[2] = test system: Aspergillus niger IFO-6341; assay: Antifungal activity, MIC; format: cell-based; conditions: IFO6341, test organism 1, 1% glucose-bouillon agar medium, serial dilution method
Experimental: The antimycotic (antifungal) activity values as shown in Table 3 were assayed on various organisms including phytopathogenic microorganisms using 1% glucose-bouillon agar medium, and the minimum inhibitory concentration (MIC) was determined by the serial dilution method.

[3] = test system: Penicillium citrinum IFO-6352; assay: Antifungal activity, MIC; format: cell-based
[4] = test system: Saccharomyces cerevisiae IFO-0209; assay: Antifungal activity, MIC; format: cell-based
[5] = test system: Pyricularia oryzae IFO-5279; assay: microbe, parasite or virus in culture; format: cell-based; conditions: IFO5279
[6] = test system: Helminthosporium oryzae IFO-7503; assay: Antifungal activity, MIC; format: cell-based; conditions: Bipolaris oryzae, IFO7503
Gibberella fujiknroi = assay: Antifungal activity, MIC; format: cell-based
[7] = test system: Botrytis cinerea IFO-5365; assay: Antifungal activity, MIC; format: cell-based
[8] = test system: Helminthosporium sigmoideum IFO-4867; assay: Antifungal activity, MIC; format: cell-based; conditions: Nakataea oryzae, IFO4867
[9] = test system: Colletctrichum lagenarium IFO-6207; assay: Antifungal activity, MIC; format: cell-based
[10] = IFO6352, test organism 2, 1% glucose-bouillon agar medium, serial dilution method, read-out: MIC
[11] = IFO0209, test organism 3, 1% glucose-bouillon agar medium, serial dilution method, read-out: MIC
[12] = IFO5365, test organism 7, 1% glucose-bouillon agar medium, serial dilution method, read-out: MIC
[13] = test organism 8, 1% glucose-bouillon agar medium, serial dilution method, read-out: MIC
[14] = test organism 9, 1% glucose-bouillon agar medium, serial dilution method, read-out: MIC

| Compound | MIC against Tetrahymena pyriformis W strain [1] | Survival Rate (T/C) (sarcoma 180) | MIC [1] | Surviving mice/Test mice (MM46 carcinoma) | MIC [2] | MIC [3, 10] | MIC [4, 11] | MIC [5] | MIC [6] | MIC (Gibberella fujiknroi; test organism 6, 1% glucose-bouillon agar medium, serial dilution method, read-out: MIC) | MIC [7, 12] | MIC [8, 13] | MIC [9] | MIC (Gibberella fujiknroi) | MIC ([7]; IFO5365) | MIC [9, 14] | MIC ([4]; IFO0209) | MIC ([3]; IFO6352) | MIC [8] |
| --- | --- | --- | --- | --- | --- | --- | --- | --- | --- | --- | --- | --- | --- | --- | --- | --- | --- | --- | --- |
| 2-Trimethylammonioethyl cetyl phosphonate [Production Example 8] | 2 µg/mL |  |  |  |  |  |  |  |  |  |  |  |  |  |  |  |  |  |  |
| CCCCCCCCCCCCCCCCCCCCCCOP(=O)([O-])OCC[N+](C)(C)C [Production Example 5, Docosyl trimethylammonioethyl phosphate] |  | 167 | > 4 µg/mL |  |  |  |  |  |  |  |  |  |  |  |  |  |  |  |  |
| CCCCCCCC/C=C\CCCCCCCCOP(=O)([O-])OCC[n+]1ccccc1 [Production Example 4, Oleyl 2-pyridinioethyl phosphate] |  | 308 |  | 2/5 | 50 µg/mL | 25 µg/mL | 25 µg/mL | 3.12 µg/mL | 50 µg/mL | 25 µg/mL | 6.25 µg/mL | 6.25 µg/mL | 50 µg/mL |  |  |  |  |  |  |
| CCCCCCCCCCCCCCC/C=C/COP(=O)([O-])OCC[N+](C)(C)C [Production Example 10, (E)-2-Octadecenyl 2-trimethylammonioethyl phosphate] |  |  | ≤ 1 µg/mL |  |  |  |  |  |  |  |  |  |  |  |  |  |  |  |  |
| CC(C)CCCC(C)CCCC(C)CCCC(C)CCOP(=O)([O-])OCC[N+](C)(C)C (stereo not shown) [Production Example 7, 3,7,11,15-Tetramethylhexadecyl 2-trimethylammonioethyl phosphate] |  |  | 4 µg/mL |  |  |  |  | 1.56 µg/mL |  |  |  |  |  | 6.25 µg/mL | 25 µg/mL | 100 µg/mL |  |  |  |
| CCCCCCCCCCCCCCOP(=O)([O-])OCC[n+]1ccccc1 [Production Example 2, Tetradecyl 2-pyridinioethyl phosphate] |  | 152 | ≥ 4 µg/mL |  | 25 µg/mL | 12.5 µg/mL |  | 3.12 µg/mL | 25 µg/mL |  |  | 12.5 µg/mL | 3.12 µg/mL | 25 µg/mL | 50 µg/mL |  | 50 µg/mL |  |  |
| CCCCCCCCCCCCCCCCCCOP(=O)([O-])OCC[N+](C)(C)C [Production Example 6, Stearyl 2-trimethylammonioethyl phosphate] |  | 200 | ≤ 1 µg/mL |  | 25 µg/mL |  |  | 6.25 µg/mL | 50 µg/mL |  |  |  |  | 50 µg/mL | 6.25 µg/mL | 100 µg/mL | 12.5 µg/mL | 25 µg/mL | 3.12 µg/mL |
| CCCCCCCCC(CCCCCCCC)OP(=O)([O-])OCC[N+](C)(C)C [Production Example 11, (1-Octyl)nonyl 2-trimethylammonioethyl phosphate] |  | 282 | ≤ 1 µg/mL |  |  |  |  |  |  |  |  |  |  |  |  |  |  |  |  |
| CCCCCCCCCCCCCCOP(=O)([O-])OCC[N+](C)(C)C [Production Example 1, Tetradecyl 2-trimethylammonioethyl phosphate] |  | 217 | 2 µg/mL |  | 12.5 µg/mL |  |  | 3.12 µg/mL | 12.5 µg/mL |  |  |  | 3.12 µg/mL | 25 µg/mL | 25 µg/mL |  | 12.5 µg/mL | 6.25 µg/mL | 6.25 µg/mL |
| CCCCCCCC/C=C\CCCCCCCCOP(=O)([O-])OCC[N+](C)(C)C [Production Example 3, Oleyl 2-trimethylammonioethyl phosphate] |  | 302 | 0.4 µg/mL | 3/5 | 12.5 µg/mL | 25 µg/mL | 6.25 µg/mL | 1.56 µg/mL | 12.5 µg/mL |  | 3.12 µg/mL |  |  | 12.5 µg/mL |  | 50 µg/mL |  |  | 1.56 µg/mL |
